Values quoted from earlier work, collected in patent US5744472A, “1-(N'-(arylalkylaminoalkyl)) aminoisoindoles; a new class of dopamine receptor subtype specific ligands” (Neurogen Corporation, priority 1995, dated 1998).
Like-named read-outs stand apart in the source and are kept apart here. Blank lines part the entries; values can stand above or below the molecule they belong to.

Experiments:
D2 receptors = conditions: background statement
D1 dopamine receptor = conditions: background statement
[1] = test system: extrapyramidal side effects (EPS)

binding affinity at D2 receptors (D2 receptors): subnanomolar range
binding at the D1 dopamine receptor (D1 dopamine receptor): binds relatively weakly
Compound: O=C(CCCN1CCC(O)(c2ccc(Cl)cc2)CC1)c1ccc(F)cc1 [haloperidol]

Compound: CN1CCN(C2=Nc3cc(Cl)ccc3Nc3ccccc32)CC1 [clozapine]
incidence of extrapyramidal side effects ([1]; compared with classical neuroleptics, background statement): lesser incidence of extrapyramidal side effects (EPS) than classical neuroleptics

Compound: CCN1CCCC1CNC(=O)c1cc(S(N)(=O)=O)ccc1OC (stereo not shown) [sulpiride]
incidence of extrapyramidal side effects ([1]; in vivo): lesser incidence of extrapyramidal side effects (EPS) than classical neuroleptics
